In brackets after ≈: the same amount, converted by molar mass.
Legend:
[1] = system: Tagia sp.; details: acute; duration: 14 days; mortality
[2] = system: Daphnia magna; details: chronic/long-term; duration: 21 days; reproduction
[3] = system: Bibionidae; details: chronic/long-term, duration: 28 days
[4] = system: Pimephales promelas; details: chronic/long-term; duration: 35 days; growth
[5] = system: Aphidius rhopalosiphi; details: acute; duration: 7 days; mortality
[6] = system: Colinus virginianus
[7] = system: Apis mellifera; details: acute, mortality
[8] = system: Rattus norvegicus
[9] = system: Oncorhynchus mykiss; details: acute; duration: 96 hours; mortality

CCCN(CCC)c1c([N+](=O)[O-])cc(C(F)(F)F)cc1[N+](=O)[O-] [Trifluralin]
LC50 [1]: > 1000 mg/kg
NOEC [2]: 0.0507 mg/L
NOEC ([3]; development): 0.25 mg/L
NOEC ([3]; mortality): 810 mg/kg
NOEC [4]: 0.0003 mg/L
LEL [5]: 1200 g/ha
LC50 ([6]; acute, oral, diet, mortality): 574 mg/kg-day
LD50 ([6]; acute, oral, mortality): > 2250 mg/kg
NOEC ([6]; reproduction developmental): 103 mg/kg-day
LD50 ([7]; duration: 48 hours, dermal): > 100 µg/piece
LD50 ([7]; oral, unspecified): > 80 µg/piece
LD50 ([8]; acute, oral, mortality): > 5000 mg/kg
LOAEL ([8]; chronic, duration: 2 years, Fischer 344, histopathology: neoplastic): 30 mg/kg-day
NOAEL ([8]; reproduction developmental, reproduction): 148 mg/kg-day
NOAEL ([8]; subchronic, duration: 90 days, oral): 2.6 mg/kg-day
LC50 [9]: 0.088 µg/mL (≈ 0.262 µM)

Reference: EPA's ToxValDB 9.5 (doi:10.2903/j.efsa.2009.327r)
